Results from US20090306062A1, “2,5-Disubstituted Piperidines” (priority 2006, published 2009).

molecular target: T1, renin (Homo sapiens, UniProt P00797); test: in vitro test according to Nussberger et al.: formation of angiotensin I in human plasma, radioimmunoassay; format: biochemical; details: range stated for the listed examples together, read-out: IC50, inhibition of the formation of angiotensin I
T1 construct: This test measures the formation of angiotensin I in human plasma; from tissue; host or cells: human plasma
T1 sequence (P00797 67-406): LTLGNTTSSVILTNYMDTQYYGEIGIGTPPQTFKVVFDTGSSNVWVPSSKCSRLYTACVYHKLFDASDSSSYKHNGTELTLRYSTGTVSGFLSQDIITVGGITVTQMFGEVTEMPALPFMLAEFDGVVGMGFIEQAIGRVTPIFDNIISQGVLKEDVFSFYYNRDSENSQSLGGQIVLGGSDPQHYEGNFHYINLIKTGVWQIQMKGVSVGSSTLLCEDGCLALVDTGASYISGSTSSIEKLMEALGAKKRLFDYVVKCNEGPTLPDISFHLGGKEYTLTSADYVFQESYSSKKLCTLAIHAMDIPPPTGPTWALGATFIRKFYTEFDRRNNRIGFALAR
Description: One experimental method of detecting the action of renin inhibitors is by means of in vitro tests, in which the reduction of the formation of angiotensin I in different systems (human plasma, purified human renin together with synthetic or natural renin substrate) is measured. One in vitro test which is used is the one according to Nussberger et al. (1987) J. Cardiovascular Pharmacol., Vol. 9, p. 39-44 which follows. This test measures the formation of angiotensin I in human plasma. The amount of angiotensin I formed is determined in a subsequent radioimmunoassay. Which action inhibitors have on the formation of angiotensin I is tested in this system by the addition of different concentrations of these substances. The IC50 refers to that concentration of the particular inhibitor which reduces the formation of angiotensin I by 50%.

IC50, 74 to 2800 nM:
COCCCN1CCOc2ccc(CO[C@@H]3CC[C@@H](CC(C)(C)C(=O)NCC4CC4)NC3)cc21 [Example 25, N-Cyclopropylmethyl-3-{(2S,5R)-5-[4-(3-methoxypropyl)-3,4-dihydro-2H-benzo[1,4]oxazin-6-ylmethoxy]piperidin-2-yl}-2,2-dimethylpropionamide]
COCCCN1CCOc2ccc(CO[C@@H]3CC[C@@H](CC(C)(C)C(=O)NCC(C)(C)C(N)=O)NC3)cc21 [Example 26, N-(2-Carbamoyl-2-methylpropyl)-3-{(2S,5R)-5-[4-(3-methoxypropyl)-3,4-dihydro-2H-benzo[1,4]oxazin-6-ylmethoxy]piperidin-2-yl}-2,2-dimethylpropionamide]
COCCCOc1cc(CO[C@@H]2CC[C@@H](CC(C)(C)C(=O)NCC3CCOCC3)NC2)ccc1F [Example 42, 3-{(2S,5R)-5-[4-Fluoro-3-(3-methoxypropoxy)benzyloxy]piperidin-2-yl}-2,2-dimethyl-N-(tetrahydropyran-4-ylmethyl)propionamide]
COCCCN1C(=O)[C@](C)(c2ccccc2)Oc2ccc(CO[C@@H]3CC[C@@H](CC(C)(C)C(=O)NCC4CCOCC4)NC3)cc21 [Example 52, (S)-3-{(2S,5R)-5-[(S)-4-(3-Methoxypropyl)-2-methyl-3-oxo-2-phenyl-3,4-dihydro-2H-benzo[1,4]oxazin-6-ylmethoxy]piperidin-2-yl}-2,2-dimethyl-N-(tetrahydropyran-4-ylmethyl)propionamide]
COCCCN1CCOc2ccc(CO[C@@H]3CC[C@@H](C[C@@H](NC(=O)CC4CCOCC4)C(C)C)NC3)cc21 [Example 89, N—((R(or S))-1-{(2S,5R)-5-[4-(3-Methoxypropyl)-3,4-dihydro-2H-benzo[1,4]oxazin-6-ylmethoxy]piperidin-2-ylmethyl}-2-methylpropyl)-2-(tetrahydropyran-4-yl)acetamide]
